Measurements published in patent publication US20100248390A1, “COMPOSITIONS AND METHODS FOR IDENTIFYING LIGANDS OF ODORANT RECEPTORS” (DUKE UNIVERSITY, priority 2009, published 2010).
Where “and” joins values, the source holds several entries; their conditions need not be identical. Equal entries are not always repeated.

System: mouse odorant receptors (ORs)
Assay: CRE-luciferase assay of odorant receptor activation (Dual-Glo, Hana3A cells, RTP1S), dose-response EC50
Format: cell-based
Settings: for log EC50, MOR184-1: receptor MOR184-1; for log EC50, MOR189-1 / log EC50 (Table 4 value), MOR189-1: receptor MOR189-1; for log EC50, MOR203-1 / log EC50 (Table 4 value), MOR203-1 / log EC50 of odorant at MOR203-1 (0 = no response): receptor MOR203-1; for log EC50, MOR138-1: receptor MOR138-1; for log EC50 (Table 4 value), MOR162-1: receptor MOR162-1; for log EC50 (Table 4 value), MOR170-1: receptor MOR170-1; for log EC50 (Table 4 value), MOR185-1: receptor MOR185-1; for log EC50 (Table 4 value), MOR207-1: receptor MOR207-1; for log EC50 (Table 4 value), MOR222-1: receptor MOR222-1; for log EC50 (Table 4 value), MOR273-1: receptor MOR273-1; for log EC50 (Table 4 value), MOR161-1: receptor MOR161-1; for log EC50 of odorant at MOR260-1 (0 = no response): receptor MOR260-1; for log EC50 of odorant at MOR5-1 (0 = no response): receptor MOR5-1; for log EC50 of odorant at MOR30-1 (0 = no response): receptor MOR30-1; for log EC50 of odorant at MOR33-1 (0 = no response): receptor MOR33-1; for log EC50 of odorant at MOR40-1 (0 = no response): receptor MOR40-1
[1] = receptor MOR41-1, 0 = no response
[2] = receptor MOR139-1, 0 = no response
[3] = receptor MOR271-1, 0 = no response
[4] = receptor MOR261-1, 0 = no response
[5] = receptor MOR272-1, 0 = no response

## C=C(C)C1CC=C(C)C(=O)C1 (single isomer, unassigned; (-)) [(−)-Carvone]
[1]
  log EC50, MOR41-1: −4.257
[2]
  log EC50, MOR139-1: −3.861
0 = no response
  log EC50, MOR184-1: −3.92
  log EC50, MOR189-1: −4.147
  log EC50, MOR203-1: −3.938
[3]
  log EC50, MOR271-1: −4.14

## CC(C)=CCCC(C)CCO (single isomer, unassigned; (-)) [(−)-b-C ? inedol]
0 = no response
  log EC50, MOR138-1: −3.347
  log EC50, MOR203-1: −3.147

## CCCCCCCCCCO [1-Decanol]
0 = no response
  log EC50, MOR203-1: −3.299
[4]
  log EC50, MOR261-1: −3.273

## CCCCCCCO [1-Heptanol]
[1]
  log EC50, MOR41-1: −3.68
0 = no response
  log EC50, MOR203-1: −3.387
[4]
  log EC50, MOR261-1: −3.382
[3]
  log EC50, MOR271-1: −3.47
[5]
  log EC50, MOR272-1: −4.181

## O=C1CCOc2ccccc21 [4-Chromanone]
Receptor MOR41-1
  log EC50 (Table 4 value), MOR41-1: −4.747
Receptor MOR129-1
  log EC50 (Table 4 value), MOR129-1: −3.785
Receptor MOR139-1
  log EC50 (Table 4 value), MOR139-1: −4.028
  log EC50 (Table 4 value), MOR162-1: −4.225
  log EC50 (Table 4 value), MOR170-1: −4.209
  log EC50 (Table 4 value), MOR185-1: −3.833
  log EC50 (Table 4 value), MOR189-1: −3.684
  log EC50 (Table 4 value), MOR207-1: −3.724
  log EC50 (Table 4 value), MOR222-1: −3.618
  log EC50 (Table 4 value), MOR273-1: −4.201
Receptor MOR271-1
  log EC50 (Table 4 value), MOR271-1: −4.047
Receptor MOR272-1
  log EC50 (Table 4 value), MOR272-1: −4.043
Receptor MOR277-1
  log EC50 (Table 4 value), MOR277-1: −3.415

## C=C(C)[C@H]1CC=C(C)C(=O)C1 [(+)-Carvone]
[1]
  log EC50, MOR41-1: −4.644
Receptor MOR129-1, 0 = no response
  log EC50, MOR129-1: −4.145
[2]
  log EC50, MOR139-1: −4.032
0 = no response
  log EC50, MOR184-1: −3.812
  log EC50, MOR189-1: −4.302
  log EC50, MOR203-1: −3.814
Receptor MOR250-1, 0 = no response
  log EC50, MOR250-1: −3.938
[3]
  log EC50, MOR271-1: −4.098
[5]
  log EC50, MOR272-1: −4.564

## C=C(C)[C@@H]1CC[C@@H](C)C(=O)C1 [(+)-Dihydrocarvone]
[1]
  log EC50, MOR41-1: −4.301
0 = no response
  log EC50, MOR138-1: −3.498
  log EC50, MOR184-1: −3.55
  log EC50, MOR189-1: −3.976
  log EC50, MOR203-1: −4.241
[2]
  log EC50, MOR139-1: −3.637
Receptor MOR182-1, 0 = no response
  log EC50, MOR182-1: −3.406
[3]
  log EC50, MOR271-1: −3.987
[5]
  log EC50, MOR272-1: −4.273

## CC(=O)c1ccccc1 [Acetophenone]
Receptor MOR41-1
  log EC50 (Table 4 value), MOR41-1: −5.039
Receptor MOR105-1
  log EC50 (Table 4 value), MOR105-1: −3.429
Receptor MOR106-1
  log EC50 (Table 4 value), MOR106-1: −3.854
Receptor MOR129-1
  log EC50 (Table 4 value), MOR129-1: −5.484
Receptor MOR139-1
  log EC50 (Table 4 value), MOR139-1: −3.935
  log EC50 (Table 4 value), MOR161-1: −3.825
  log EC50 (Table 4 value), MOR162-1: −4.778
  log EC50 (Table 4 value), MOR170-1: −3.9
  log EC50 (Table 4 value), MOR185-1: −4.016
  log EC50 (Table 4 value), MOR189-1: −3.372
  log EC50 (Table 4 value), MOR207-1: −3.608
Receptor MOR250-1
  log EC50 (Table 4 value), MOR250-1: −3.975
Receptor MOR258-1
  log EC50 (Table 4 value), MOR258-1: −3.358
Receptor MOR271-1
  log EC50 (Table 4 value), MOR271-1: −4.05
Receptor MOR272-1
  log EC50 (Table 4 value), MOR272-1: −3.922

## C=CCOC(=O)Cc1ccccc1 [Allyl phenylacetate]
Receptor MOR1-1
  log EC50 (Table 4 value), MOR1-1: −3.581
Receptor MOR2-1
  log EC50 (Table 4 value), MOR2-1: −3.253
Receptor MOR139-1
  log EC50 (Table 4 value), MOR139-1: −3.625
  log EC50 (Table 4 value), MOR203-1: −3.401
  log EC50 (Table 4 value), MOR222-1: −3.369
Receptor MOR223-1
  log EC50 (Table 4 value), MOR223-1: −4.178
Receptor MOR236-1
  log EC50 (Table 4 value), MOR236-1: −4.052
Receptor MOR258-17
  log EC50 (Table 4 value), MOR258-17: −3.842
Receptor MOR261-1
  log EC50 (Table 4 value), MOR261-1: −3.425
Receptor MOR268-1
  log EC50 (Table 4 value), MOR268-1: −3.434
Receptor MOR271-1
  log EC50 (Table 4 value), MOR271-1: −4.23
Receptor MOR272-1
  log EC50 (Table 4 value), MOR272-1: −4.824

## CC(=O)OCc1ccccc1 [Benzyl acetate]
Receptor MOR41-1
  log EC50 (Table 4 value), MOR41-1: −3.972
Receptor MOR139-1
  log EC50 (Table 4 value), MOR139-1: −3.729
  log EC50 (Table 4 value), MOR203-1: −3.531
Receptor MOR223-1
  log EC50 (Table 4 value), MOR223-1: −3.841
Receptor MOR261-1
  log EC50 (Table 4 value), MOR261-1: −3.352
Receptor MOR271-1
  log EC50 (Table 4 value), MOR271-1: −5.379
Receptor MOR272-1
  log EC50 (Table 4 value), MOR272-1: −4.948

## O=c1ccc2ccccc2o1 [Coumarin]
Receptor MOR41-1
  log EC50 (Table 4 value), MOR41-1: −4.785
Receptor MOR106-1
  log EC50 (Table 4 value), MOR106-1: −3.919
Receptor MOR129-1
  log EC50 (Table 4 value), MOR129-1: −4.04
Receptor MOR139-1
  log EC50 (Table 4 value), MOR139-1: −3.749
  log EC50 (Table 4 value), MOR161-1: −3.139
  log EC50 (Table 4 value), MOR162-1: −4.483
  log EC50 (Table 4 value), MOR170-1: −3.989
  log EC50 (Table 4 value), MOR185-1: −4.042
  log EC50 (Table 4 value), MOR189-1: −3.215
  log EC50 (Table 4 value), MOR207-1: −3.905
Receptor MOR250-1
  log EC50 (Table 4 value), MOR250-1: −3.855
Receptor MOR258-1
  log EC50 (Table 4 value), MOR258-1: −4.296
Receptor MOR259-1
  log EC50 (Table 4 value), MOR259-1: −3.834

## CCCCCC1=C(C)CCC1=O [Dihydroiasmone]
Receptor MOR41-1
  log EC50 (Table 4 value), MOR41-1: −3.766
Receptor MOR139-1
  log EC50 (Table 4 value), MOR139-1: −4.308
  log EC50 (Table 4 value), MOR189-1: −3.945
  log EC50 (Table 4 value), MOR273-1: −4.441
Receptor MOR205-1
  log EC50 (Table 4 value), MOR205-1: −4.699
Receptor MOR271-1
  log EC50 (Table 4 value), MOR271-1: −4.126
Receptor MOR272-1
  log EC50 (Table 4 value), MOR272-1: −4.447

## CC(C)=CCC/C(C)=C/CO [Getaniol]
Receptor MOR139-1
  log EC50 (Table 4 value), MOR139-1: −3.939
  log EC50 (Table 4 value), MOR203-1: −3.622
Receptor MOR238-1
  log EC50 (Table 4 value), MOR238-1: −3.843
Receptor MOR268-1
  log EC50 (Table 4 value), MOR268-1: −3.897

## CCCCCCCCCS [Nonanethiol]
  log EC50 of odorant at MOR203-1 (0 = no response): −3.528
  log EC50 of odorant at MOR260-1 (0 = no response): −4.488
Receptor MOR261-1
  log EC50 of odorant at MOR261-1 (0 = no response): −3.376
Receptor MOR268-1
  log EC50 of odorant at MOR268-1 (0 = no response): −3.589

## CCCCCCCCC(=O)O [Nonanoic acid]
  log EC50 of odorant at MOR5-1 (0 = no response): −4.029
  log EC50 of odorant at MOR30-1 (0 = no response): −4.396
  log EC50 of odorant at MOR33-1 (0 = no response): −4.606
  log EC50 of odorant at MOR40-1 (0 = no response): −4.128
  log EC50 of odorant at MOR203-1 (0 = no response): −3.478
  log EC50 of odorant at MOR260-1 (0 = no response): −4.108
Receptor MOR18-1
  log EC50 of odorant at MOR18-1 (0 = no response): −4.077
Receptor MOR37-1
  log EC50 of odorant at MOR37-1 (0 = no response): −3.9

## CCCCCCCCS [Octanethiol]
  log EC50 of odorant at MOR203-1 (0 = no response): −3.356

## CCCCCCCC(=O)O [Octanoic Acid]
  log EC50 of odorant at MOR5-1 (0 = no response): −3.711
  log EC50 of odorant at MOR30-1 (0 = no response): −3.68
  log EC50 of odorant at MOR33-1 (0 = no response): −4.212
  log EC50 of odorant at MOR40-1 (0 = no response): −3.617
Receptor MOR23-1
  log EC50 of odorant at MOR23-1 (0 = no response): −5.053
Receptor MOR25-1
  log EC50 of odorant at MOR25-1 (0 = no response): −3.689

## CC(=O)Oc1ccccc1 [Phenyl acetate]
Receptor MOR41-1
  log EC50 of odorant at MOR41-1 (0 = no response): −4.143
Receptor MOR106-1
  log EC50 of odorant at MOR106-1 (0 = no response): −3.874
Receptor MOR139-1
  log EC50 of odorant at MOR139-1 (0 = no response): −3.421 and −3.385
Receptor MOR223-1
  log EC50 of odorant at MOR223-1 (0 = no response): −3.487
Receptor MOR250-1
  log EC50 of odorant at MOR250-1 (0 = no response): −3.545
Receptor MOR258-1
  log EC50 of odorant at MOR258-1 (0 = no response): −3.099
Receptor MOR271-1
  log EC50 of odorant at MOR271-1 (0 = no response): −5.033
Receptor MOR272-1
  log EC50 of odorant at MOR272-1 (0 = no response): −5.098
